# Experimental data: US20240336602A1 (Katholieke Universiteit Leuven, priority 2020, published 2024)
# Target: T1, mouse TRPM3a2 (mTRPM3) ion channel (Mus musculus, UniProt J9SQF3)
# T1 construct: expressed in transfected cells; host or cells: flip-in HEK293
# Experiment: TRPM3 ion channel driven Ca2+ uptake, Fluo-4 AM assay (PS-stimulated, overexpressing flip-in HEK293 cells)
# Type: cell-based
# Details: PS (50 μM) stimulated, cpds. 600-666
# Outline: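 Flip-in HEK293 cells overexpressing mTRPM3α2, loaded with Fluo-4 AM, were added to wells with compound plus 50 μM pregnenolone sulfate in Ca2+-containing Krebs buffer and read immediately (ex 485/em 535 nm). Percent inhibition was scaled between PS-plus-vehicle and positive-control-inhibitor signals.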
# T1 sequence (J9SQF3 1-1709 isoform J9SQF3-12): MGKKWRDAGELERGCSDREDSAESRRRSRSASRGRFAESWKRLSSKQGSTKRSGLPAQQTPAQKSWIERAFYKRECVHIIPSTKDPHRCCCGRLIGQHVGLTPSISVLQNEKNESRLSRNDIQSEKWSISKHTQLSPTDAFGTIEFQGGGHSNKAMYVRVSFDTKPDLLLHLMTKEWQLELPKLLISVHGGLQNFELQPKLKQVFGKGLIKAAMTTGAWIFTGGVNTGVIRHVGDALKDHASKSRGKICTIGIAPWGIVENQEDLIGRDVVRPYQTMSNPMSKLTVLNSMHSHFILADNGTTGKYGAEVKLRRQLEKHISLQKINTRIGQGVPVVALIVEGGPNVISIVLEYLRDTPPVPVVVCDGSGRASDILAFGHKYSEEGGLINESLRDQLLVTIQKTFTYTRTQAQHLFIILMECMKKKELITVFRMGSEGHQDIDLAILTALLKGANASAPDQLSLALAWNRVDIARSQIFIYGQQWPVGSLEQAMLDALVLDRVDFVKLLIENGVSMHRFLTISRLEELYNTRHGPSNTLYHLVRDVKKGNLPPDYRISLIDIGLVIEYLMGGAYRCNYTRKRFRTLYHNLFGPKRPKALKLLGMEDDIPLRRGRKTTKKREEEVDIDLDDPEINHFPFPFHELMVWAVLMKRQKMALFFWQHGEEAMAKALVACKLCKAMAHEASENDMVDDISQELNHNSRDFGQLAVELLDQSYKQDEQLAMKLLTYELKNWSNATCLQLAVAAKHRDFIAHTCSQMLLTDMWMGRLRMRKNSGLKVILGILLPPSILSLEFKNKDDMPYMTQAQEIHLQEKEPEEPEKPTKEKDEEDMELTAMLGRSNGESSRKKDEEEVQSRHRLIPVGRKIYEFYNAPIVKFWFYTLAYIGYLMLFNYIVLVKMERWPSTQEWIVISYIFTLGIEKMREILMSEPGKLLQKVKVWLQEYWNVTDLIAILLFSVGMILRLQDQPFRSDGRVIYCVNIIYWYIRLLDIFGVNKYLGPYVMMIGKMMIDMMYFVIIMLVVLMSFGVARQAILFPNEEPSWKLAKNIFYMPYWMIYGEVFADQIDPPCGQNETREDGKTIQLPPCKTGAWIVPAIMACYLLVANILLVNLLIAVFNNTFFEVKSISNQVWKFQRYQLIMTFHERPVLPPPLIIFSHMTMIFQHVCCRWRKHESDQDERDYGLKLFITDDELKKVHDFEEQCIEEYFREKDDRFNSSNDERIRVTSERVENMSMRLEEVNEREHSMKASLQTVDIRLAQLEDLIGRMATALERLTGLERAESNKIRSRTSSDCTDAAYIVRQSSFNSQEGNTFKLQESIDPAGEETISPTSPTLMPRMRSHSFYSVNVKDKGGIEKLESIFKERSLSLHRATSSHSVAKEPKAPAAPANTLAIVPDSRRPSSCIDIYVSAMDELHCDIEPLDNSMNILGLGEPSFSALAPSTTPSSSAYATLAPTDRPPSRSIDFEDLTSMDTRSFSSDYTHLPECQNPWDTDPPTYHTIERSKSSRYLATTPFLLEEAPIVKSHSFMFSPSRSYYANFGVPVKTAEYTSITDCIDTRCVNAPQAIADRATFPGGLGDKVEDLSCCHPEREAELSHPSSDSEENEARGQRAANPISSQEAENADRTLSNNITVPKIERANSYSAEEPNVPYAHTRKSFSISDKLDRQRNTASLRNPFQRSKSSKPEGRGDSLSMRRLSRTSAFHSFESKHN
row,IC50 [µM],SMILES
1,1 to 20,"Cc1oc2ccc(OCc3ncccn3)cc2c1C(=O)NC1(CO)CCOCC1 [cpd 626, N-(4-(hydroxymethyl)tetrahydro-2H-pyran-4-yl)-2-methyl-5-(pyrimidin-2-ylmethoxy)benzofuran-3-carboxamide]"
2,1 to 20,"Cc1oc2ccc(OCc3ccnc(O)c3)cc2c1C(=O)NC1(CO)CCOCC1 [cpd 628, N-(4-(hydroxymethyl)tetrahydro-2H-pyran-4-yl)-5-((2-hydroxypyridin-4-yl)methoxy)-2-methylbenzofuran-3-carboxamide]"
3,1 to 20,"COc1ccc(COc2ccc3oc(C)c(C(=O)NC4(CO)CCOCC4)c3c2)cn1 [cpd 632, N-(4-(hydroxymethyl)tetrahydro-2H-pyran-4-yl)-5-((6-methoxypyridin-3-yl)methoxy)-2-methylbenzofuran-3-carboxamide]"
4,1 to 20,"Cc1oc2ccc(OCc3ccc4nccn4c3)cc2c1C(=O)NC1(CO)CCOCC1 [cpd 633, N-(4-(hydroxymethyl)tetrahydro-2H-pyran-4-yl)-5-(imidazo[1,2-a]pyridin-6-ylmethoxy)-2-methylbenzofuran-3-carboxamide]"
5,1 to 20,"Cc1oc2ccc(OCc3cccnc3C(F)(F)F)cc2c1C(=O)N(CCO)C1CCC1 [cpd 659, N-cyclobutyl-N-(2-hydroxyethyl)-2-methyl-5-((2-(trifluoromethyl)pyridin-3-yl)methoxy)benzofuran-3-carboxamide]"

# Same assay, conditions: PS (50 μM) stimulated, cpds. 667-751
row,IC50 [µM],SMILES
1,≤ 1,Cc1cc(COc2ccc3oc(C)c(C(=O)N[C@@H](CO)C(N)=O)c3c2)on1 [cpd 674]
2,≤ 1,"Cc1oc2ccc(OCc3c[nH]nc3C(F)(F)F)cc2c1C(=O)N[C@H](C(N)=O)[C@@H](C)O [cpd 685, N-((2S,3R)-1-amino-3-hydroxy-1-oxobutan-2-yl)-2-methyl-5-((3-(trifluoromethyl)-1H-pyrazol-4-yl)methoxy)benzofuran-3-carboxamide]"
3,1 to 20,"Cc1oc2ccc(OCc3ncccc3C3CC3)cc2c1C(=O)NC1(CO)CCOCC1 [cpd 705, 5-((3-cyclopropylpyridin-2-yl)methoxy)-N-(4-(hydroxymethyl)tetrahydro-2H-pyran-4-yl)-2-methylbenzofuran-3-carboxamide]"
